From patent publication US9272047B2, “Use of biological surfactant as anti-inflammatory agent and tissue preservative solution” (Shaperon Inc., priority 2007, dated 2016)

Key:
NF-κB = experiment: Inhibition of E. coli LPS-stimulated NF-κB activation (CD25 expression) in 3FP CHO cells; format: cell-based, Chinese hamster; settings: live 7AAD(−) LPS-stimulated 3FP cells
Procedure: In order to evaluate the inhibition efficacy for the activation of E. coli LPS-stimulated NF-κB in a CHO cell, % expression of CD 25 in the CHO cell was evaluated as the following method, and FACS analysis after staining with 7-AAD was carried out to evaluate the cytotoxicity. Bile salts were classified into 3 groups based on their solubility in different solvents, as follows:
The CHO cells expressing CD25 under the regulation of a nuclear factor (NF-κB) promoter, shown FIG. 2A, were used for this experiment. Toll-like receptor 2 (TLR2) and CD14 gene-transformed CHO cells (hereinafter referred to as “3FP cells”) were also used.
The next day, the cultured cells were treated with bile acid derivatives and LPS, and were incubated in a CO2 incubator for 15 hr at 37° C.
After stimulating the above incubated cells for 15 hr, the culture solution was centrifuged (1200 rpm, 5 min, 4° C.) to remove the culture supernatant. The precipitate was washed twice with 200 μl of FACS buffer (1×PBS containing 1% BSA and 1 mM EDTA). 20 μl of blocking solution (PBS containing 1:10 of normal mouse serum and 1:3 of anti-human CD14/CD32 (BD, 2.4G2) was added to each well and reacted on an ice for 30 min. A mixture solution of anti-human CD25-PE (1:16) and anti-human CD14-FITC (1:32) was added to the well and then reacted on the ice for 30 min. The reaction mixture was washed twice with 200 μl of FACS buffer, and then 200 μl of 7-AAD (1:20) was added to the reaction mixture. After the reaction mixture was reacted on the ice for 10 min, CD25 expression efficacy and cytotoxicity were analyzed by using a flow cytometer.
In order to analyze living cells, 7-AAD(−) cells were selected and an activation of nuclear transcription factor was confirmed by the increase of CD25 expression.

dendritic cells [1] = experiment: Inhibition of E. coli LPS-induced activation of dendritic cells (CD40, CD80, CD86, I-Ab expression); format: cell-based, mouse; settings: 100 ng/ml E. coli LPS; CD11c(+)/7AAD(−) dendritic cells
Procedure: In order to assay the effect of sodium glycocholate on the activation procedure of antigen presenting cells, which is induced by E. coli LPS, cells were separated from the bone marrow of recombination activating gene 2 (Rag2) deficient mouse. The separated cells were plated at 2×10^5 cells/well in a 96-well plate and then treated with 1.5 ng/ml of granulocyt-macrophage colony-stimulating factor (GM-CSF) and 0.75 ng/ml of interleukin-4 followed by the differentiation of the cells into dentritic cells through 6-day incubation.
The dendritic cells were well mixed with sodium glycocholate and LPS. The mixtures were stimulated for 18 hours at 37° C., and stained with anti-CD40-FITC, anti-CD80-FITC, anti-I-Ab-PE, anti-CD86-PE, 7AAD and anti-CD11c-APC, then the cells were assayed via a flow cytometer. Each group was treated and assayed at least twice, and the results were statistically analyzed through t-test. The results were p<0.05 compared with the experimental groups treated by only LPS.
As shown FIGS. 9A-9B to 11A-11B, in order to assay only living dedritic cells, CD11c(+)/7AAD(−) cells were selected and then the expressions of dendritic cell costimulatory molecules and I-Ab were assayed.

macrophages = experiment: Inhibition of LPS-induced nitric oxide generation, macrophages (Griess); format: cell-based, mouse; settings: macrophages stimulated by LPS, 18 hours
Procedure: (§1) Then, the resulting dendritic cell mixtures were plated, by […] each, in a 96-well plate. Griss reagents were added to each well, and the 96-well plate was covered with foils and kept reacting for 15 min at room temperature. Absorbance at 540 nm was measured using an ELISA reader. Macrophages separated from abdomen were also treated with sodium glycocholate, sodium taurochenodeoxycholate and sodium taurodeoxycholate, respectively, and then stimulated with LPS for 18 hours. Thereafter, the same experiments as the dentritic cells were performed to the macrophages.

dendritic cells [2] = experiment: Inhibition of LPS-induced nitric oxide generation, dendritic cells (Griess); format: cell-based, mouse; settings: dendritic cells stimulated by LPS, 18 hours
Procedure: as §1

Compound	inhibition effect for LPS-stimulated CD25 expression (NF-κB activation) (NF-κB)	increased expression of CD40, CD80, CD86 and I-Ab (dendritic cells [1])	generation of NO (macrophages)	generation of NO (dendritic cells [2])
C[C@H](CCC(=O)NCC(=O)[O-])[C@H]1CC[C@H]2[C@@H]3[C@H](O)C[C@@H]4C[C@H](O)CC[C@]4(C)[C@H]3CC[C@]12C.[Na+] [sodium glycochenodeoxycholate]	showed an inhibition effect	–	–	–
C[C@H](CCC(=O)O)[C@H]1CC[C@H]2[C@@H]3[C@H](O)C[C@@H]4C[C@H](O)CC[C@]4(C)[C@H]3CC[C@]12C [chenodeoxycholic acid]	showed inhibition effects	–	–	–
C[C@H](CCC(=O)O)[C@H]1CC[C@H]2[C@@H]3[C@H](O)C[C@@H]4C[C@H](O)CC[C@]4(C)[C@H]3C[C@H](O)[C@]12C [cholic acid]	showed inhibition effects	–	–	–
C[C@H](CCC(=O)NCC(=O)O)[C@H]1CC[C@H]2[C@@H]3[C@H](O)C[C@@H]4C[C@H](O)CC[C@]4(C)[C@H]3C[C@H](O)[C@]12C [glycocholic acid hydrate]	showed inhibition effects	–	–	–
C[C@H](CCC(=O)O)[C@H]1CC[C@H]2[C@@H]3C(=O)C[C@@H]4CC(=O)CC[C@]4(C)[C@H]3CC(=O)[C@]12C [dehydrocholic acid]	showed inhibition effects	–	–	–
C[C@H](CCC(=O)NCCS(=O)(=O)O)[C@H]1CC[C@H]2C3[C@H](O)C[C@@H]4C[C@H](O)CC[C@]4(C)[C@H]3CC[C@]12C (stereo partly drawn) [sodium taurochenodeoxycholate]	showed an inhibition effect	inhibited depending on the concentration	inhibited	inhibited
C[C@H](CCC(=O)NCCS(=O)(=O)O)[C@H]1CC[C@H]2[C@@H]3[C@H](O)C[C@@H]4C[C@H](O)CC[C@]4(C)[C@H]3C[C@H](O)[C@]12C [sodium taurocholate hydrate]	showed an inhibition effect	–	–	–
sodium deoxycholate	showed an inhibition effect	–	–	–
C[C@H](CCC(=O)NCCS(=O)(=O)[O-])[C@H]1CC[C@H]2[C@@H]3CC[C@@H]4C[C@H](O)CC[C@]4(C)[C@H]3C[C@H](O)[C@]12C.[Na+] [sodium taurodeoxycholate hydrate]	showed an inhibition effect	inhibited depending on the concentration	inhibited	inhibited
